In patent US10745346B2, “Agonists of protein tyrosine phosphatase SHP-1” (priority 2015, dated 2020):

Columns and labels:
[1] = molecular target: Recombinant SHP-1 protein (Homo sapiens, UniProt P29350); assay: SHP-1 phosphatase activity assay (RediPlate 96 EnzChek Tyrosine Phosphatase Assay kit); type: biochemical; settings: SC derivatives at 1 μM for 2 hr; recombinant SHP-1 25 ng; control DMSO = 100; mean±SD (N=3)
Summary of the method: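 Recombinant human SHP-1 (25 ng) was incubated for 2 h with compound at 1 μM, using a DMSO solvent control. Tyrosine phosphatase activity was then measured with the EnzChek kit by absorbance at 465 nm. Values are mean±SD, N=3.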

[2] = test system: PLC5 cells (a hepatocellular carcinoma cell line); assay: Cytotoxicity, MTT cell viability assay; type: cell-based; settings: 72 h exposure
Method: PLC5 cells (a hepatocellular carcinoma cell line) were seeded at 5×10^3 cells per well in 96-well plates. Then, cells were exposed to SC derivatives at the indicated doses for 72 h. After that, cells were incubated with MTT (1 mg/ml) (Sigma-Aldrich, St. Louis, Mo.) for 2 h at 37° C. Cell viability was then assessed by measuring the absorbance at 570 nm using a microplate reader.

Sequence of Recombinant SHP-1 protein (P29350 whole entry): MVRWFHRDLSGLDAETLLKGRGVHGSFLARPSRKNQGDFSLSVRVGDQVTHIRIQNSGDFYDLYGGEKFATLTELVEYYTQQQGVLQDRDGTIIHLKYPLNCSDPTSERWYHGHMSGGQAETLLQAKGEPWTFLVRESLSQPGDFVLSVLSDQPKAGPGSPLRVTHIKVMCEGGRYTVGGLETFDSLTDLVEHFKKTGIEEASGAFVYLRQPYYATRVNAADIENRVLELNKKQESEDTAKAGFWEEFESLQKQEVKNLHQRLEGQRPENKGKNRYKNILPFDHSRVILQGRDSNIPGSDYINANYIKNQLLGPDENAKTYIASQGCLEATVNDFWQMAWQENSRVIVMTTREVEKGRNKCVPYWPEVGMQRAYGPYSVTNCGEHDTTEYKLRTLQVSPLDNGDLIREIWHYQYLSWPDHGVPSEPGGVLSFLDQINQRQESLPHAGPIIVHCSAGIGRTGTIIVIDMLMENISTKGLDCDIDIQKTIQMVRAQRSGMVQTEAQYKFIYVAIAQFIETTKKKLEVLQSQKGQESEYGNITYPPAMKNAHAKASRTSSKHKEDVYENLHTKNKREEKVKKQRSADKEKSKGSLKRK

For N#CCc1ccc(Oc2ccc(NC(=O)Nc3ccc(F)c(C(F)(F)F)c3)cc2)cc1 [compound 168, 1-(4-(4-(cyanomethyl)phenoxy)phenyl)-3-(4-fluoro-3-(trifluoromethyl)phenyl)urea], the “SHP-1 Activity (% of control)” value [1] was 147.25 ± 78.63 % of control and the IC50 [2] was 1070 nM.
With N#CCc1ccc(NC(=O)Nc2ccc(Oc3ccc(CC#N)cc3)cc2)cc1 [compound 169, 1-(4-(4-(cyanomethyl)phenoxy)phenyl)-3-(4-(cyanomethyl)phenyl)urea] the “SHP-1 Activity (% of control)” value [1] was 126.25 ± 1.46 % of control and the IC50 [2] was greater than 10000 nM.
For C#Cc1cccc(NC(=O)Nc2ccc(Oc3ccc(CC#N)cc3)cc2)c1 [compound 170, 1-(4-(4-(cyanomethyl)phenoxy)phenyl)-3-(3-ethynylphenyl)urea], the “SHP-1 Activity (% of control)” value [1] was 101.42 ± 7.86 % of control and the IC50 [2] was greater than 10000 nM.
For N#CCc1ccc(Oc2ccc(NC(=O)Nc3ccc(Cl)c(C(F)(F)F)c3)cc2)cc1 [compound 171, 1-(4-chloro-3-(trifluoromethyl)phenyl)-3-(4-(4-(cyanomethyl)phenoxy)phenyl)urea], the “SHP-1 Activity (% of control)” value [1] was 116.66 ± 17.26 % of control and the IC50 [2] was 880 nM.
N#CCc1ccc(Oc2ccc(NC(=O)Nc3cc(C(F)(F)F)cc(C(F)(F)F)c3)cc2)cc1 [compound 172, 1-(3,5-bis(trifluoromethyl)phenyl)-3-(4-(4-(cyanomethyl)phenoxy)phenyl) urea] was tested, and the “SHP-1 Activity (% of control)” value [1] was 215.34 ± 12.22 % of control and the IC50 [2] was 410 nM.
N#CCc1ccc(Oc2ccc(NC(=O)Nc3cccc(C(F)(F)F)c3)cc2)cc1 [compound 173, 1-(4-(4-(cyanomethyl)phenoxy)phenyl)-3-(3-(trifluoromethyl)phenyl)urea] was tested, and the “SHP-1 Activity (% of control)” value [1] was 110.75 ± 1.18 % of control and the IC50 [2] was greater than 10000 nM.
In the case of Cc1cc(Oc2cc(NC(=O)Nc3cccc(C(F)(F)F)c3)ccc2Cl)ccc1C#N [compound 174, 1-(4-chloro-3-(4-cyano-3-methylphenoxy)phenyl)-3-(3-(trifluoromethyl)phenyl)urea], the “SHP-1 Activity (% of control)” value [1] is reported as 203.95 ± 30.20 % of control and the IC50 [2] is reported as 1460 nM.
With Cc1cc(Oc2cc(NC(=O)Nc3ccc(Cl)c(C(F)(F)F)c3)ccc2Cl)ccc1C#N [compound 175, 1-(4-chloro-3-(4-cyano-3-methylphenoxy)phenyl)-3-(4-chloro-3-(trifluoromethyl)phenyl)urea] the “SHP-1 Activity (% of control)” value [1] was 233.37 ± 36.5 % of control and the IC50 [2] was 1200 nM.
In the case of Cc1cc(Oc2cc(NC(=O)Nc3cc(C(F)(F)F)cc(C(F)(F)F)c3)ccc2Cl)ccc1C#N [compound 176, 1-(3,5-bis(trifluoromethyl)phenyl)-3-(4-chloro-3-(4-cyano-3-methylphenoxy)phenyl)urea], the “SHP-1 Activity (% of control)” value [1] is reported as 112.57 ± 3.69 % of control and the IC50 [2] is reported as 650 nM.
In the case of Cc1cc(Oc2cc(NC(=O)Nc3ccc(F)c(C(F)(F)F)c3)ccc2Cl)ccc1C#N [compound 177, 1-(4-chloro-3-(4-cyano-3-methylphenoxy)phenyl)-3-(4-fluoro-3-(trifluoromethyl)phenyl)urea], the “SHP-1 Activity (% of control)” value [1] is reported as 103.52 ± 1.13 % of control and the IC50 [2] is reported as greater than 10000 nM.
For N#Cc1ccc(Oc2cc(NC(=O)Nc3cccc(C(F)(F)F)c3)ccc2Cl)cc1Cl [compound 178, 1-(4-chloro-3-(3-chloro-4-cyanophenoxy)phenyl)-3-(3-(trifluoromethyl)phenyl)urea], the “SHP-1 Activity (% of control)” value [1] was 106.69 ± 9.47 % of control and the IC50 [2] was 1490 nM.
In the case of N#Cc1ccc(Oc2cc(NC(=O)Nc3ccc(Cl)c(C(F)(F)F)c3)ccc2Cl)cc1Cl [compound 179, 1-(4-chloro-3-(3-chloro-4-cyanophenoxy)phenyl)-3-(4-chloro-3-(trifluoromethyl)phenyl)urea], the “SHP-1 Activity (% of control)” value [1] is reported as 99.11 ± 7.09 % of control and the IC50 [2] is reported as 950 nM.
In the case of N#Cc1ccc(Oc2cc(NC(=O)Nc3cc(C(F)(F)F)cc(C(F)(F)F)c3)ccc2Cl)cc1Cl [compound 180, 1-(3,5-bis(trifluoromethyl)phenyl)-3-(4-chloro-3-(3-chloro-4-cyanophenoxy)phenyl)urea], the “SHP-1 Activity (% of control)” value [1] is reported as 105.52 ± 0.87 % of control and the IC50 [2] is reported as 780 nM.
With N#Cc1ccc(Oc2cc(NC(=O)Nc3ccc(F)c(C(F)(F)F)c3)ccc2Cl)cc1Cl [compound 181, 1-(4-chloro-3-(3-chloro-4-cyanophenoxy)phenyl)-3-(4-fluoro-3-(trifluoromethyl)phenyl)urea] the “SHP-1 Activity (% of control)” value [1] was 106.88 ± 3.58 % of control and the IC50 [2] was 930 nM.
With N#Cc1ccc(Oc2cc(NC(=O)Nc3cc(C(F)(F)F)cc(C(F)(F)F)c3)ccc2Cl)cn1 [compound 182, 1-(3,5-bis(trifluoromethyl)phenyl)-3-(4-chloro-3-((6-cyanopyridin-3-yl)oxy)phenyl)urea] the “SHP-1 Activity (% of control)” value [1] was 110.50 ± 6.08 % of control and the IC50 [2] was 560 nM.
With N#Cc1ccc(Oc2ccc(F)c(NC(=O)Nc3cc(C(F)(F)F)cc(C(F)(F)F)c3)c2)cn1 [compound 183, 1-(3,5-bis(trifluoromethyl)phenyl)-3-(5-((6-cyanopyridin-3-yl)oxy)-2-fluorophenyl)urea] the “SHP-1 Activity (% of control)” value [1] was 353.11 ± 30.81 % of control and the IC50 [2] was 530 nM.
